Source: paper PMC9637222, “Autoinducer-2 and bile salts induce c-di-GMP synthesis to repress the T3SS via a T3SS chaperone” (Nature Communications, 2022)
Where “and” joins values, the source holds several entries; their conditions need not be identical. Equal entries are not always repeated. Where two headings read alike, the source gives them in different places.

What was measured:
VcrH (WP_005464462) = target: T1, VcrH (WP_005464462) (Vibrio parahaemolyticus, UniProt Q87P60); format: binding; conditions: for Kd: ITC
T1 sequence (Q87P60 1-162): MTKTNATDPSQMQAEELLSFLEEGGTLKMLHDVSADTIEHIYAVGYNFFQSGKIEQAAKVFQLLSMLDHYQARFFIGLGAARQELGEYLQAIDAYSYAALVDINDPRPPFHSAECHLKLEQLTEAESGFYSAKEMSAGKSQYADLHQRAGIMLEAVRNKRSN

InvF = target: T2, InvF (Salmonella typhimurium, UniProt P69343); assay: ITC: c-di-GMP binding to InvF; parameters: His6 (N, cleaved yes); made in house; host or cells: E. coli BL21(DE3), pET-28a (pET28a-invF); species or system S. Typhimurium
T2 sequence (P69343 1-216): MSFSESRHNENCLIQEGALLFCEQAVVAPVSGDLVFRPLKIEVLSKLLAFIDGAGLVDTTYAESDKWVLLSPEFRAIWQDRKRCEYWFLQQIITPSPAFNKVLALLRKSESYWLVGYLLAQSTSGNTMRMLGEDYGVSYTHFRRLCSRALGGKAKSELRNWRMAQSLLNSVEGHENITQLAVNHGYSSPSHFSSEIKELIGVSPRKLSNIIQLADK

T3SS ATPase PA1697 = assay: ITC: c-di-GMP binding to T3SS ATPase PA1697; conditions: T3SS ATPase from P. aeruginosa
Experimental: (§1) Supplementary Fig. 25 Neither the T3SS ATPase InvC (STM2894) from S. Typhimurium nor the T3SS ATPase PA1697 from P. aeruginosa interacts with c-di-GMP
(§2) The binding affinity was evaluated by ITC analysis. ITC data and plots of injected heat for automatic injections of 100 μM c-di-GMP into the sample cell containing 10 μM InvC (a) or PA1697 (b) are shown inthe upper and lower plots, respectively. […]
(§3) the finalanalysis. Results shown are one representative of three experiments with similar results.

SipB-His6 / SicA-HA = assay: Co-IP of SipB-His6 with SicA-HA in presence of c-di-GMP; conditions: dose-dependent
InvF-His6 / SicA-HA = assay: Co-IP of InvF-His6 with SicA-HA in presence of nucleotides; conditions: nucleotide added to lysate
CesD (WP_000379288) = target: T3, CesD (WP_000379288) (Escherichia coli O157:H7, UniProt Q8X6H6); format: binding, EHEC O157:H7; conditions: for Kd: ITC
T3 sequence (Q8X6H6 1-163): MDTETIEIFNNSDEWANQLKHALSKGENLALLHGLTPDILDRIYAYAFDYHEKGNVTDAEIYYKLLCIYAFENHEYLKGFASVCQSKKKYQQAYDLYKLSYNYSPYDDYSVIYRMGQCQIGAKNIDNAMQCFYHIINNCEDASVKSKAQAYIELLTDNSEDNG

SycD (WP_010891209) = target: T4, SycD (WP_010891209) (Yersinia enterocolitica, UniProt O87496); format: binding; conditions: for Kd: ITC
T4 sequence (O87496 1-168): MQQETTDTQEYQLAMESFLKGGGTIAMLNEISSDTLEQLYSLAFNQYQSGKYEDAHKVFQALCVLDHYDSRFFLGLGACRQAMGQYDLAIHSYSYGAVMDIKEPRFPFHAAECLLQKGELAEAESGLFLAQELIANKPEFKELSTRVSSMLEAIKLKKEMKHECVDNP

SicA K27A = target: T5, SicA K27A (Salmonella typhimurium, UniProt P69066, K27A); format: binding, S. Typhimurium
T5 construct: His6 (N, cleaved yes); made in house; host or cells: E. coli BL21(DE3), pET-28a (pET28a-sicAK27A)

SicA D67A = target: T6, SicA D67A (Salmonella typhimurium, UniProt P69066, D67A); format: binding, S. Typhimurium
T6 construct: His6 (N, cleaved yes); made in house; host or cells: E. coli BL21(DE3), pET-28a (pET28a-sicAD67A)

SipC-His6 / SicA-HA = assay: Co-IP of SipC-His6 with SicA-HA in presence of c-di-GMP; conditions: dose-dependent
[1] = tested on: T7, T3SS ATPase InvC (STM2894); assay: ITC: c-di-GMP binding to T3SS ATPase InvC; conditions: T3SS ATPase from S. Typhimurium
T7 construct: His6 (N, cleaved yes); made in house; host or cells: E. coli BL21(DE3) (pET28a-invC)
Experimental: as §1, §2, §3

IpgC (WP_000055835) = target: T8, IpgC (WP_000055835) (Shigella flexneri, UniProt P0A2U4); format: binding, S. flexneri serotype 2a; conditions: for Kd: ITC
T8 construct: His6 (N, cleaved yes); made in house; host or cells: E. coli BL21(DE3), pET-28a (pET28a-ipgC)

BicA (WP_009896148) = target: T9, BicA (WP_009896148) (Burkholderia thailandensis, UniProt Q2T712); format: binding
T9 sequence (Q2T712 1-171): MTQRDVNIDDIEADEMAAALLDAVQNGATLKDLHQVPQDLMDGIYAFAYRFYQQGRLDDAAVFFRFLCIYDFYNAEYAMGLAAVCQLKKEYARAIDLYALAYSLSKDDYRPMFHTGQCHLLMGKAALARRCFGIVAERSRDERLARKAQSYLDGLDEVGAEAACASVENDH

SicA N70A = target: T10, SicA N70A (Salmonella typhimurium, UniProt P69066, N70A); format: binding, S. Typhimurium
T10 construct: His6 (N, cleaved yes); made in house; host or cells: E. coli BL21(DE3), pET-28a (pET28a-sicAN70A)

[2] = range given for all 6 chaperones (PcrH, IpgC, SycD, CesD, BicA, VcrH), read-out: Kd

T5 sequence (P69066 whole entry K27A): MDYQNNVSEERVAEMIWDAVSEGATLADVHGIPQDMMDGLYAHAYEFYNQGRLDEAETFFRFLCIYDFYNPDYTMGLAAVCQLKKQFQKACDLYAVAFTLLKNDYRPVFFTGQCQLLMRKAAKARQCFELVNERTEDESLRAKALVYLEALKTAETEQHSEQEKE
T6 sequence (P69066 whole entry D67A): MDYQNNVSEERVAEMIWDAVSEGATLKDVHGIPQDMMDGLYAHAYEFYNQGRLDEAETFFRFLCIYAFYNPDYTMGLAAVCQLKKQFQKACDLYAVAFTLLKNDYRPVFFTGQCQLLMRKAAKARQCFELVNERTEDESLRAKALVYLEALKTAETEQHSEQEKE
T8 sequence (P0A2U4 whole entry): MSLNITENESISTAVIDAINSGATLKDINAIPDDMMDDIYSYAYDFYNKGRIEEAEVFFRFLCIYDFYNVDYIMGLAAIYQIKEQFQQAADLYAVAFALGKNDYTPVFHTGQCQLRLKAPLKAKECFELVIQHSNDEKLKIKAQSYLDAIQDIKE
T10 sequence (P69066 whole entry N70A): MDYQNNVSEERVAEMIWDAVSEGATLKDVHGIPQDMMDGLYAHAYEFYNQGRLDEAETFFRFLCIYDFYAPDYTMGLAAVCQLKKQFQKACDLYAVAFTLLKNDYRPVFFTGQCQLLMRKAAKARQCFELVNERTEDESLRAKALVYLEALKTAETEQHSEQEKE

Nc1nc2c(ncn2C2OC3COP(=O)(O)OC4C(COP(=O)(O)OC3C2O)OC(n2cnc3c(=O)[nH]c(N)nc32)C4O)c(=O)[nH]1 (stereo not shown) [c-di-GMP, Cyclic di-GMP]
n, c-di-GMP binding to VcrH (VcrH (WP_005464462); ITC binding stoichiometry n, individual replicates, Supplementary Figure 22f): 1.12 and 1.10 | Kd (VcrH (WP_005464462); individual replicates, Supplementary Figure 22f, read-out: Kd, c-di-GMP binding to VcrH): 140 nM and 160 nM | Kd (VcrH (WP_005464462); [2]): 150 to 220 nM | Binding to InvF (in words) (InvF): does not bind | Interaction with T3SS ATPase (in words) (T3SS ATPase PA1697): no interactions | Effect on co-IP of SipB-His6 with SicA-HA (in words) (SipB-His6 / SicA-HA): decreased | Effect on co-IP of InvF-His6 with SicA-HA (in words) (InvF-His6 / SicA-HA): impaired | n, c-di-GMP binding to CesD (CesD (WP_000379288); ITC binding stoichiometry n, individual replicates, Supplementary Figure 22d): 1.03 and 1.09 and 1.15 | Kd (CesD (WP_000379288); individual replicates, Supplementary Figure 22d, read-out: Kd, c-di-GMP binding to CesD): 170 nM and 180 nM and 190 nM | Kd (CesD (WP_000379288); [2]): 150 to 220 nM | n, c-di-GMP binding to SycD (SycD (WP_010891209); ITC binding stoichiometry n, individual replicates, Supplementary Figure 22c): 1.15 and 1.12 | Kd (SycD (WP_010891209); individual replicates, Supplementary Figure 22c, read-out: Kd, c-di-GMP binding to SycD): 180 nM and 150 nM and 160 nM | Kd (SycD (WP_010891209); [2]): 150 to 220 nM | n, c-di-GMP binding to SicAK27A (SicA K27A; ITC binding stoichiometry n, individual replicates, Supplementary Figure 17a): 1.03 and 0.93 and 0.96 | Kd (SicA K27A; binding to SicA K27A): 41000 nM and 33000 nM and 39000 nM | n, c-di-GMP binding to SicAD67A (SicA D67A; ITC binding stoichiometry n, individual replicates, Supplementary Figure 17d): 0.99 and 1.02 and 0.94 | Kd (SicA D67A; binding to SicA D67A): 33000 nM and 34000 nM and 32000 nM | Effect on co-IP of SipC-His6 with SicA-HA (in words) (SipC-His6 / SicA-HA): decreased | Interaction with T3SS ATPase (in words) [1]: no interactions | n, c-di-GMP binding to IpgC (IpgC (WP_000055835); ITC binding stoichiometry n, individual replicates, Supplementary Figure 22b): 1.23 and 1.10 and 1.13 | Kd (IpgC (WP_000055835); individual replicates, Supplementary Figure 22b, read-out: Kd, c-di-GMP binding to IpgC): 200 nM and 250 nM and 220 nM | Kd (IpgC (WP_000055835); [2]): 150 to 220 nM | Kd (BicA (WP_009896148)): 150 to 220 nM | n, c-di-GMP binding to BicA (BicA (WP_009896148)): 1.12 and 1.17 and 1.14 | Kd (BicA (WP_009896148); read-out: Kd, c-di-GMP binding to BicA): 190 nM and 200 nM and 240 nM | n, c-di-GMP binding to SicAN70A (SicA N70A; ITC binding stoichiometry n, individual replicates, Supplementary Figure 17e): 0.95 and 1.03 | Increase in Kd, SicA N70A versus SicA (SicA N70A; ITC, peer review file): 140 fold | Kd (SicA N70A; binding to SicA N70A): 28000 nM and 31000 nM and 32000 nM
